Measured values from patent US9149038B2, “4-amino-6-(heterocyclic)picolinates and 6-amino-2-(heterocyclic)pyrimidine-4-carboxylates and their use as herbicides” (Dow AgroSciences LLC, priority 2013, dated 2015).
Where two headings read alike, the source gives them in different places.

Key:
[1] = system: Key Grass and Sedge Weeds as well as Grass Crops; assay: Post-Emergent Test II: postemergent herbicidal activity, visual rating after 14 d (Table 8); type: in vivo; conditions: post-emergence, 336 h; for pest or weed control at 35 g/ha: 35 g ai/ha; for pest or weed control at 70 g/ha: 70 g ai/ha; for pest or weed control at 140 g/ha: 140 g ai/ha
Outline: (§1)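 Plants were raised in a greenhouse for 7-21 d and treated once at the first or second true leaf stage. Compounds, dissolved in 97:3 acetone:DMSO then diluted into an aqueous acetone/isopropanol/crop oil/Triton X-155 carrier, were applied by overhead track sprayer at 187 L/ha. After 14 d with subirrigation, injury was scored visually from 0 (none) to 100 (complete kill).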

[2] = system: Key Broadleaf Weed and Crop Species; assay: Post-Emergent Test II: postemergent herbicidal activity, visual rating after 14 d (Table 7); type: in vivo; conditions: post-emergence, 336 h; for pest or weed control at 35 g/ha: 35 g ai/ha; for pest or weed control at 70 g/ha: 70 g ai/ha; for pest or weed control at 140 g/ha: 140 g ai/ha
Outline: as §1

[3] = barnyardgrass (Echinochloa crus-galli), read-out: Visual Growth Reduction (%) 14 Days After Application ECHCG
[4] = giant foxtail (Setaria faberi), read-out: Visual Growth Reduction (%) 14 Days After Application SETFA
[5] = maize, corn (Zea mays), read-out: Visual Growth Reduction (%) 14 Days After Application ZEAMX
[6] = rice (Oryza sativa), read-out: Visual Growth Reduction (%) 14 Days After Application ORYSA
[7] = wheat, spring (Triticum aestivum), read-out: Visual Growth Reduction (%) 14 Days After Application TRZAS
[8] = yellow nutsedge (Cyperus esculentus), read-out: Visual Growth Reduction (%) 14 Days After Application CYPES
[9] = lambsquarters (Chenopodium album), read-out: Visual Growth Reduction (%) 14 Days After Application CHEAL
[10] = oilseed rape, canola (Brassica napus), read-out: Visual Growth Reduction (%) 14 Days After Application BRSNN
[11] = redroot pigweed (Amaranthus retroflexus), read-out: Visual Growth Reduction (%) 14 Days After Application AMARE
[12] = sunflower (Helianthus annuus), read-out: Visual Growth Reduction (%) 14 Days After Application HELAN
[13] = velvetleaf (Abutilon theophrasti), read-out: Visual Growth Reduction (%) 14 Days After Application ABUTH
[14] = wild poinsettia (Euphorbia heterophylla), read-out: Visual Growth Reduction (%) 14 Days After Application EPHHL

Nc1c(Cl)c(C(=O)O)nc(-c2cc3c(cc2F)OC(F)(F)O3)c1Cl [Compound 3]
pest or weed control at 35 g/ha [1, 3]: 0 to 29% | pest or weed control at 70 g/ha [1, 3]: 0 to 29% | pest or weed control at 140 g/ha [1, 3]: 0 to 29% | pest or weed control at 35 g/ha [1, 4]: 0 to 29% | pest or weed control at 70 g/ha [1, 4]: 0 to 29% | pest or weed control at 140 g/ha [1, 4]: 0 to 29% | pest or weed control at 35 g/ha [1, 5]: 0 to 29% | pest or weed control at 70 g/ha [1, 5]: 0 to 29% | pest or weed control at 140 g/ha [1, 5]: 0 to 29% | pest or weed control at 35 g/ha [1, 6]: 0 to 29% | pest or weed control at 70 g/ha [1, 6]: 0 to 29% | pest or weed control at 140 g/ha [1, 6]: 0 to 29% | pest or weed control at 35 g/ha [1, 7]: 0 to 29% | pest or weed control at 70 g/ha [1, 7]: 0 to 29% | pest or weed control at 140 g/ha [1, 7]: 0 to 29% | pest or weed control at 35 g/ha [1, 8]: 0 to 29% | pest or weed control at 70 g/ha [1, 8]: 0 to 29% | pest or weed control at 140 g/ha [1, 8]: 0 to 29% | pest or weed control at 35 g/ha [2, 9]: 0 to 29% | pest or weed control at 70 g/ha [2, 9]: 0 to 29% | pest or weed control at 140 g/ha [2, 9]: 45 to 59% | pest or weed control at 35 g/ha [2, 10]: 0 to 29% | pest or weed control at 70 g/ha [2, 10]: 0 to 29% | pest or weed control at 140 g/ha [2, 10]: 0 to 29% | pest or weed control at 35 g/ha [2, 11]: 0 to 29% | pest or weed control at 70 g/ha [2, 11]: 95 to 100% | pest or weed control at 140 g/ha [2, 11]: 95 to 100% | pest or weed control at 35 g/ha [2, 12]: 0 to 29% | pest or weed control at 70 g/ha [2, 12]: 0 to 29% | pest or weed control at 140 g/ha [2, 12]: 85 to 94% | pest or weed control at 35 g/ha [2, 13]: 0 to 29% | pest or weed control at 70 g/ha [2, 13]: 0 to 29% | pest or weed control at 140 g/ha [2, 13]: 0 to 29% | pest or weed control at 35 g/ha [2, 14]: 0 to 29% | pest or weed control at 70 g/ha [2, 14]: 0 to 29% | pest or weed control at 140 g/ha [2, 14]: 0 to 29%

Nc1c(F)c(-c2ccc3c(c2)OC(F)(F)O3)nc(C(=O)O)c1Cl [Compound 7]
pest or weed control at 35 g/ha [1, 3]: 95 to 100% | pest or weed control at 70 g/ha [1, 3]: 95 to 100% | pest or weed control at 140 g/ha [1, 3]: 95 to 100% | pest or weed control at 35 g/ha [1, 4]: 95 to 100% | pest or weed control at 70 g/ha [1, 4]: 95 to 100% | pest or weed control at 140 g/ha [1, 4]: 95 to 100% | pest or weed control at 35 g/ha [1, 5]: 95 to 100% | pest or weed control at 70 g/ha [1, 5]: 95 to 100% | pest or weed control at 140 g/ha [1, 5]: 95 to 100% | pest or weed control at 35 g/ha [1, 6]: 30 to 44% | pest or weed control at 70 g/ha [1, 6]: 30 to 44% | pest or weed control at 140 g/ha [1, 6]: 60 to 74% | pest or weed control at 35 g/ha [1, 7]: 45 to 59% | pest or weed control at 70 g/ha [1, 7]: 60 to 74% | pest or weed control at 140 g/ha [1, 7]: 60 to 74% | pest or weed control at 35 g/ha [1, 8]: 95 to 100% | pest or weed control at 70 g/ha [1, 8]: 95 to 100% | pest or weed control at 140 g/ha [1, 8]: 95 to 100% | pest or weed control at 35 g/ha [2, 9]: 95 to 100% | pest or weed control at 70 g/ha [2, 9]: 95 to 100% | pest or weed control at 140 g/ha [2, 9]: 95 to 100% | pest or weed control at 35 g/ha [2, 10]: 85 to 94% | pest or weed control at 70 g/ha [2, 10]: 85 to 94% | pest or weed control at 140 g/ha [2, 10]: 95 to 100% | pest or weed control at 35 g/ha [2, 11]: 75 to 84% | pest or weed control at 70 g/ha [2, 11]: 95 to 100% | pest or weed control at 140 g/ha [2, 11]: 95 to 100% | pest or weed control at 35 g/ha [2, 12]: 95 to 100% | pest or weed control at 70 g/ha [2, 12]: 95 to 100% | pest or weed control at 140 g/ha [2, 12]: 95 to 100% | pest or weed control at 35 g/ha [2, 13]: 85 to 94% | pest or weed control at 70 g/ha [2, 13]: 85 to 94% | pest or weed control at 140 g/ha [2, 13]: 95 to 100% | pest or weed control at 35 g/ha [2, 14]: 95 to 100% | pest or weed control at 70 g/ha [2, 14]: 95 to 100% | pest or weed control at 140 g/ha [2, 14]: 95 to 100%

COC(=O)c1nc(-c2ccc3c(c2F)OC(F)(F)O3)c(Cl)c(N)c1Cl [Compound 4]
pest or weed control at 35 g/ha [1, 3]: 0 to 29% | pest or weed control at 70 g/ha [1, 3]: 0 to 29% | pest or weed control at 140 g/ha [1, 3]: 0 to 29% | pest or weed control at 35 g/ha [1, 4]: 0 to 29% | pest or weed control at 70 g/ha [1, 4]: 0 to 29% | pest or weed control at 140 g/ha [1, 4]: 0 to 29% | pest or weed control at 35 g/ha [1, 5]: 0 to 29% | pest or weed control at 70 g/ha [1, 5]: 0 to 29% | pest or weed control at 140 g/ha [1, 5]: 0 to 29% | pest or weed control at 35 g/ha [1, 6]: 0 to 29% | pest or weed control at 70 g/ha [1, 6]: 0 to 29% | pest or weed control at 140 g/ha [1, 6]: 0 to 29% | pest or weed control at 35 g/ha [1, 7]: 0 to 29% | pest or weed control at 70 g/ha [1, 7]: 0 to 29% | pest or weed control at 140 g/ha [1, 7]: 0 to 29% | pest or weed control at 35 g/ha [1, 8]: 0 to 29% | pest or weed control at 70 g/ha [1, 8]: 0 to 29% | pest or weed control at 140 g/ha [1, 8]: 0 to 29% | pest or weed control at 35 g/ha [2, 9]: 0 to 29% | pest or weed control at 70 g/ha [2, 9]: 0 to 29% | pest or weed control at 140 g/ha [2, 9]: 0 to 29% | pest or weed control at 35 g/ha [2, 10]: 0 to 29% | pest or weed control at 70 g/ha [2, 10]: 0 to 29% | pest or weed control at 140 g/ha [2, 10]: 0 to 29% | pest or weed control at 35 g/ha [2, 11]: 0 to 29% | pest or weed control at 70 g/ha [2, 11]: 0 to 29% | pest or weed control at 140 g/ha [2, 11]: 0 to 29% | pest or weed control at 35 g/ha [2, 12]: 0 to 29% | pest or weed control at 70 g/ha [2, 12]: 45 to 59% | pest or weed control at 140 g/ha [2, 12]: 60 to 74% | pest or weed control at 35 g/ha [2, 13]: 0 to 29% | pest or weed control at 70 g/ha [2, 13]: 0 to 29% | pest or weed control at 140 g/ha [2, 13]: 0 to 29% | pest or weed control at 35 g/ha [2, 14]: 0 to 29% | pest or weed control at 70 g/ha [2, 14]: 0 to 29% | pest or weed control at 140 g/ha [2, 14]: 0 to 29%

Nc1c(Cl)c(C(=O)O)nc(-c2ccc3c(c2F)OC(F)(F)O3)c1Cl [Compound 5]
pest or weed control at 35 g/ha [1, 3]: 0 to 29% | pest or weed control at 70 g/ha [1, 3]: 0 to 29% | pest or weed control at 140 g/ha [1, 3]: 0 to 29% | pest or weed control at 35 g/ha [1, 4]: 0 to 29% | pest or weed control at 70 g/ha [1, 4]: 0 to 29% | pest or weed control at 140 g/ha [1, 4]: 0 to 29% | pest or weed control at 35 g/ha [1, 5]: 0 to 29% | pest or weed control at 70 g/ha [1, 5]: 0 to 29% | pest or weed control at 140 g/ha [1, 5]: 0 to 29% | pest or weed control at 35 g/ha [1, 6]: 0 to 29% | pest or weed control at 70 g/ha [1, 6]: 0 to 29% | pest or weed control at 140 g/ha [1, 6]: 0 to 29% | pest or weed control at 35 g/ha [1, 7]: 0 to 29% | pest or weed control at 70 g/ha [1, 7]: 0 to 29% | pest or weed control at 140 g/ha [1, 7]: 0 to 29% | pest or weed control at 35 g/ha [1, 8]: 0 to 29% | pest or weed control at 70 g/ha [1, 8]: 0 to 29% | pest or weed control at 140 g/ha [1, 8]: 0 to 29% | pest or weed control at 35 g/ha [2, 9]: 0 to 29% | pest or weed control at 70 g/ha [2, 9]: 0 to 29% | pest or weed control at 140 g/ha [2, 9]: 0 to 29% | pest or weed control at 35 g/ha [2, 10]: 45 to 59% | pest or weed control at 70 g/ha [2, 10]: 60 to 74% | pest or weed control at 140 g/ha [2, 10]: 60 to 74% | pest or weed control at 35 g/ha [2, 11]: 0 to 29% | pest or weed control at 70 g/ha [2, 11]: 0 to 29% | pest or weed control at 140 g/ha [2, 11]: 0 to 29% | pest or weed control at 35 g/ha [2, 12]: 30 to 44% | pest or weed control at 70 g/ha [2, 12]: 30 to 44% | pest or weed control at 140 g/ha [2, 12]: 45 to 59% | pest or weed control at 35 g/ha [2, 13]: 0 to 29% | pest or weed control at 70 g/ha [2, 13]: 0 to 29% | pest or weed control at 140 g/ha [2, 13]: 0 to 29% | pest or weed control at 35 g/ha [2, 14]: 0 to 29% | pest or weed control at 70 g/ha [2, 14]: 0 to 29% | pest or weed control at 140 g/ha [2, 14]: 0 to 29%
